Publication PMC11167047 (Cell Death Discovery, 2024)

Assays:
Test in all cases: kinome screen (33PanQinase)
Format in all cases: biochemical
ERK2 = molecular target: T1, ERK2 (Homo sapiens, UniProt P28482)
T1 construct: purchased Reaction Biology Europe GmbH (formerly ProQinase)
Procedure: (§1) The Kinome Screening was performed by Reaction Biology Europe GmbH (http://reactionbiology.com; Freiburg i. Br., Germany).

CDC42BPA = molecular target: T2, CDC42BPA (Homo sapiens, UniProt Q5VT25)
T2 construct: purchased Reaction Biology Europe GmbH (formerly ProQinase)
Procedure: as §1

p38γ = molecular target: T3, p38γ (Homo sapiens, UniProt P53778)
T3 construct: purchased Reaction Biology Europe GmbH (formerly ProQinase)
T3 sequence (P53778 1-367): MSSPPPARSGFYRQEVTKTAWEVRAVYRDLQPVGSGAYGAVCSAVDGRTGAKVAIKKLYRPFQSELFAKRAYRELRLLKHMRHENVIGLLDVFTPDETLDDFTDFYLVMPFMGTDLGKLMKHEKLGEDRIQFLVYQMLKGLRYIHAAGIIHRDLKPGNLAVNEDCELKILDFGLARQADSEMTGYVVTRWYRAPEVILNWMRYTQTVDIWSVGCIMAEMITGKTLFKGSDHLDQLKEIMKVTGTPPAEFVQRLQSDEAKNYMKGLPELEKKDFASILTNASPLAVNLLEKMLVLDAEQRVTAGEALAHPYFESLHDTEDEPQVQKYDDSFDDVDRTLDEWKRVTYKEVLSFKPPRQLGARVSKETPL
Procedure: as §1

PRKX = molecular target: T4, PRKX (Homo sapiens, UniProt P51817)
T4 construct: purchased Reaction Biology Europe GmbH (formerly ProQinase)
T4 sequence (P51817 1-358): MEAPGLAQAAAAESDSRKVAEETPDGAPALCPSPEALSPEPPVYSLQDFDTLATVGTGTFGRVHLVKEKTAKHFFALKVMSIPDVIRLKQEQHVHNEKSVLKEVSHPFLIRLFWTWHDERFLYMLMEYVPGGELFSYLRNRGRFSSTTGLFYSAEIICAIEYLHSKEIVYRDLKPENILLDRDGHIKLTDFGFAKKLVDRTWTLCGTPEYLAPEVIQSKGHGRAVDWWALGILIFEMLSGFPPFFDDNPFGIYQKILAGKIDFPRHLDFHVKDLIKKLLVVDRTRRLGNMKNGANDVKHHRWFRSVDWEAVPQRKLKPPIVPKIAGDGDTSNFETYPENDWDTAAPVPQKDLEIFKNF
Procedure: as §1

MEK1 = molecular target: T5, MEK1 (Homo sapiens, UniProt Q02750)
T5 construct: purchased Reaction Biology Europe GmbH (formerly ProQinase)
Procedure: as §1

PKA = molecular target: T6, PKA (Homo sapiens, UniProt P17612)
T6 construct: purchased Reaction Biology Europe GmbH (formerly ProQinase)
Procedure: as §1

CDK8/CycC = molecular target: T7, CDK8/CycC (Homo sapiens, UniProt P49336)
T7 construct: purchased Reaction Biology Europe GmbH (formerly ProQinase)
Procedure: as §1

RPS6KA3 = molecular target: T8, RPS6KA3 (Homo sapiens, UniProt P51812)
T8 construct: purchased Reaction Biology Europe GmbH (formerly ProQinase)
Procedure: as §1

PASK = molecular target: T9, PASK (Homo sapiens, UniProt Q96RG2)
T9 construct: purchased Reaction Biology Europe GmbH (formerly ProQinase)
Procedure: as §1

BRK = molecular target: T10, BRK (Homo sapiens, UniProt Q13882)
T10 construct: purchased Reaction Biology Europe GmbH (formerly ProQinase)
Procedure: as §1

VEGFR3 = molecular target: T11, VEGFR3 (Homo sapiens, UniProt P35916)
T11 construct: purchased Reaction Biology Europe GmbH (formerly ProQinase)
Procedure: as §1

CDK1/CycB1 = molecular target: T12, CDK1/CycB1 (Homo sapiens, UniProt P06493)
T12 construct: purchased Reaction Biology Europe GmbH (formerly ProQinase)
Procedure: as §1

CK2α1 = molecular target: T13, CK2α1 (Homo sapiens, UniProt P68400)
T13 construct: purchased Reaction Biology Europe GmbH (formerly ProQinase)
Procedure: as §1

MARK3 = molecular target: T14, MARK3 (Homo sapiens, UniProt P27448)
T14 construct: purchased Reaction Biology Europe GmbH (formerly ProQinase)
Procedure: as §1

WNK1 = molecular target: T15, WNK1 (Homo sapiens, UniProt Q9H4A3)
T15 construct: purchased Reaction Biology Europe GmbH (formerly ProQinase)
Procedure: as §1

SRPK2 = molecular target: T16, SRPK2 (Homo sapiens, UniProt P78362)
T16 construct: purchased Reaction Biology Europe GmbH (formerly ProQinase)
Procedure: as §1

GRK4 = molecular target: T17, GRK4 (Homo sapiens, UniProt P32298)
T17 construct: purchased Reaction Biology Europe GmbH (formerly ProQinase)
Procedure: as §1

ARK5 = molecular target: T18, ARK5 (Homo sapiens, UniProt O60285)
T18 construct: purchased Reaction Biology Europe GmbH (formerly ProQinase)
T18 sequence (O60285 1-661): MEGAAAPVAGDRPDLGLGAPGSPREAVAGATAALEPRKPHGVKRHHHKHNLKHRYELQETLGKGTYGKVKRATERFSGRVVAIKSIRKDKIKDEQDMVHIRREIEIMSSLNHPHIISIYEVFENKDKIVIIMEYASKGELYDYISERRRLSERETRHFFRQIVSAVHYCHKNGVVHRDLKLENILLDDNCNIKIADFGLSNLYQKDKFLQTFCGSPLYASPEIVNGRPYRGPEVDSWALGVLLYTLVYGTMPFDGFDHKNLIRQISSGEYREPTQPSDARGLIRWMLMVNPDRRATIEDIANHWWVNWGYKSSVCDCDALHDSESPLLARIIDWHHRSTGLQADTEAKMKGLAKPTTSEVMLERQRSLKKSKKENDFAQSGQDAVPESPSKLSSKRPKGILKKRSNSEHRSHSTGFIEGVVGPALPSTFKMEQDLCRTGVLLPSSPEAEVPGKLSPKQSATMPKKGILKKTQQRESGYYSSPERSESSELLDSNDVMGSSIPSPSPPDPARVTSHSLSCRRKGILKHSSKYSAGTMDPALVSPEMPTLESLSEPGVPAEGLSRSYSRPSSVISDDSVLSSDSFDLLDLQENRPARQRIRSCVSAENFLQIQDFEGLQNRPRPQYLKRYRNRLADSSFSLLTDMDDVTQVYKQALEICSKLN
Procedure: as §1

PAK4 = molecular target: T19, PAK4 (Homo sapiens, UniProt O96013)
T19 construct: purchased Reaction Biology Europe GmbH (formerly ProQinase)
Procedure: as §1

RAF1 YDYD = molecular target: T20, RAF1 YDYD (Homo sapiens, UniProt P04049, Y340D/Y341D)
T20 construct: purchased Reaction Biology Europe GmbH (formerly ProQinase)
Procedure: as §1

T14 sequence (P27448 whole entry): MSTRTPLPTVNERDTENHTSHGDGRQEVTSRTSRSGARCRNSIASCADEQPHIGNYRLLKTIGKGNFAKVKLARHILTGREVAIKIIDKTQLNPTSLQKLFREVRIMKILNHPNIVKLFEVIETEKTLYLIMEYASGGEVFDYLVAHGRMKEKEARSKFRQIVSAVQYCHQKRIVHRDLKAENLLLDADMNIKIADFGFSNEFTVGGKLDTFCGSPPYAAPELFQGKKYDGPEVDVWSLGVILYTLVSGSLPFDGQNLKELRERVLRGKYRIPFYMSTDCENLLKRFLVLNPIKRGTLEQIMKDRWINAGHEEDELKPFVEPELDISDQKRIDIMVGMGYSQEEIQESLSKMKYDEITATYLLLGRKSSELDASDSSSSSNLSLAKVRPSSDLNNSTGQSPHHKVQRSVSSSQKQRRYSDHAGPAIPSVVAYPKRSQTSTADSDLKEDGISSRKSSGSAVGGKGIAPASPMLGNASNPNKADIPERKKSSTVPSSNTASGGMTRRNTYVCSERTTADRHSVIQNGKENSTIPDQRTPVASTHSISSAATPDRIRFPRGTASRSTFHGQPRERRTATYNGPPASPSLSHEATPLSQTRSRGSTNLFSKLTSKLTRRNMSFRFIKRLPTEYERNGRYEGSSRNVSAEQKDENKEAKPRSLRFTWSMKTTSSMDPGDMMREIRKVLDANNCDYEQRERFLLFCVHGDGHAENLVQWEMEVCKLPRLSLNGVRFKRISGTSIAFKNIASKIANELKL
T11 sequence (P35916 25-1363): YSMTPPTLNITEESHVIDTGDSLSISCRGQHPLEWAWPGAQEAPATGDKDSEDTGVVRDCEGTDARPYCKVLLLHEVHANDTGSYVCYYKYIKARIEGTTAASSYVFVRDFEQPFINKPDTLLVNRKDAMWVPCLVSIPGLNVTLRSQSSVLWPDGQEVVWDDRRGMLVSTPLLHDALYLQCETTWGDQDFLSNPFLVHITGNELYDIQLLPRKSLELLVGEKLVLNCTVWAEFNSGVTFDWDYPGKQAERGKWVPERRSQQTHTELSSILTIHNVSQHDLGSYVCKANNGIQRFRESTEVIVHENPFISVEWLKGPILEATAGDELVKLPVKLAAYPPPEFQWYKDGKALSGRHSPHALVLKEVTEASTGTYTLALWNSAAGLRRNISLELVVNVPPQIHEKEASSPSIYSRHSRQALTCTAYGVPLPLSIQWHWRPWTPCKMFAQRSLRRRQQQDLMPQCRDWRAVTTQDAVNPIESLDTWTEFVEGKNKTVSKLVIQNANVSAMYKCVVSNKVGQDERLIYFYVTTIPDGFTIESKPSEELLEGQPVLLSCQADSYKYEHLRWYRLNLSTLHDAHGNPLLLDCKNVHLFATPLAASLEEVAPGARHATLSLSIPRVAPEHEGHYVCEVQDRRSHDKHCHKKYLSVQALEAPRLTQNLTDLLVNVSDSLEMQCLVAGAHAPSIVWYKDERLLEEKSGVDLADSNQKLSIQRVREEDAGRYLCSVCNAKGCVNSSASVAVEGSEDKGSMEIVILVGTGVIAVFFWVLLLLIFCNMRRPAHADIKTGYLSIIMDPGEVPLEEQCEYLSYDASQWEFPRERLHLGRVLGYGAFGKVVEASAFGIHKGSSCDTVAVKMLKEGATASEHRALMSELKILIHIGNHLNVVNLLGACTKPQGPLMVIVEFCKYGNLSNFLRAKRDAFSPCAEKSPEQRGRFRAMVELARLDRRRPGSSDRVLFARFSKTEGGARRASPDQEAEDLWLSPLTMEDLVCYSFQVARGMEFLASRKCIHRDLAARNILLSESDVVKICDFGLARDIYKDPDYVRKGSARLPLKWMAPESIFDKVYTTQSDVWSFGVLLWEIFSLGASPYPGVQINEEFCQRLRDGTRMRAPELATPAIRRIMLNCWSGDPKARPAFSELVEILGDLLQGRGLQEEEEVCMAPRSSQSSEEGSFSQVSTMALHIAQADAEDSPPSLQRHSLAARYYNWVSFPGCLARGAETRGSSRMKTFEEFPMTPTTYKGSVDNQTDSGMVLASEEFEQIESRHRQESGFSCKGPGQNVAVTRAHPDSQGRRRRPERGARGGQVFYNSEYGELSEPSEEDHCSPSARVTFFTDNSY
T15 sequence (Q9H4A3 whole entry): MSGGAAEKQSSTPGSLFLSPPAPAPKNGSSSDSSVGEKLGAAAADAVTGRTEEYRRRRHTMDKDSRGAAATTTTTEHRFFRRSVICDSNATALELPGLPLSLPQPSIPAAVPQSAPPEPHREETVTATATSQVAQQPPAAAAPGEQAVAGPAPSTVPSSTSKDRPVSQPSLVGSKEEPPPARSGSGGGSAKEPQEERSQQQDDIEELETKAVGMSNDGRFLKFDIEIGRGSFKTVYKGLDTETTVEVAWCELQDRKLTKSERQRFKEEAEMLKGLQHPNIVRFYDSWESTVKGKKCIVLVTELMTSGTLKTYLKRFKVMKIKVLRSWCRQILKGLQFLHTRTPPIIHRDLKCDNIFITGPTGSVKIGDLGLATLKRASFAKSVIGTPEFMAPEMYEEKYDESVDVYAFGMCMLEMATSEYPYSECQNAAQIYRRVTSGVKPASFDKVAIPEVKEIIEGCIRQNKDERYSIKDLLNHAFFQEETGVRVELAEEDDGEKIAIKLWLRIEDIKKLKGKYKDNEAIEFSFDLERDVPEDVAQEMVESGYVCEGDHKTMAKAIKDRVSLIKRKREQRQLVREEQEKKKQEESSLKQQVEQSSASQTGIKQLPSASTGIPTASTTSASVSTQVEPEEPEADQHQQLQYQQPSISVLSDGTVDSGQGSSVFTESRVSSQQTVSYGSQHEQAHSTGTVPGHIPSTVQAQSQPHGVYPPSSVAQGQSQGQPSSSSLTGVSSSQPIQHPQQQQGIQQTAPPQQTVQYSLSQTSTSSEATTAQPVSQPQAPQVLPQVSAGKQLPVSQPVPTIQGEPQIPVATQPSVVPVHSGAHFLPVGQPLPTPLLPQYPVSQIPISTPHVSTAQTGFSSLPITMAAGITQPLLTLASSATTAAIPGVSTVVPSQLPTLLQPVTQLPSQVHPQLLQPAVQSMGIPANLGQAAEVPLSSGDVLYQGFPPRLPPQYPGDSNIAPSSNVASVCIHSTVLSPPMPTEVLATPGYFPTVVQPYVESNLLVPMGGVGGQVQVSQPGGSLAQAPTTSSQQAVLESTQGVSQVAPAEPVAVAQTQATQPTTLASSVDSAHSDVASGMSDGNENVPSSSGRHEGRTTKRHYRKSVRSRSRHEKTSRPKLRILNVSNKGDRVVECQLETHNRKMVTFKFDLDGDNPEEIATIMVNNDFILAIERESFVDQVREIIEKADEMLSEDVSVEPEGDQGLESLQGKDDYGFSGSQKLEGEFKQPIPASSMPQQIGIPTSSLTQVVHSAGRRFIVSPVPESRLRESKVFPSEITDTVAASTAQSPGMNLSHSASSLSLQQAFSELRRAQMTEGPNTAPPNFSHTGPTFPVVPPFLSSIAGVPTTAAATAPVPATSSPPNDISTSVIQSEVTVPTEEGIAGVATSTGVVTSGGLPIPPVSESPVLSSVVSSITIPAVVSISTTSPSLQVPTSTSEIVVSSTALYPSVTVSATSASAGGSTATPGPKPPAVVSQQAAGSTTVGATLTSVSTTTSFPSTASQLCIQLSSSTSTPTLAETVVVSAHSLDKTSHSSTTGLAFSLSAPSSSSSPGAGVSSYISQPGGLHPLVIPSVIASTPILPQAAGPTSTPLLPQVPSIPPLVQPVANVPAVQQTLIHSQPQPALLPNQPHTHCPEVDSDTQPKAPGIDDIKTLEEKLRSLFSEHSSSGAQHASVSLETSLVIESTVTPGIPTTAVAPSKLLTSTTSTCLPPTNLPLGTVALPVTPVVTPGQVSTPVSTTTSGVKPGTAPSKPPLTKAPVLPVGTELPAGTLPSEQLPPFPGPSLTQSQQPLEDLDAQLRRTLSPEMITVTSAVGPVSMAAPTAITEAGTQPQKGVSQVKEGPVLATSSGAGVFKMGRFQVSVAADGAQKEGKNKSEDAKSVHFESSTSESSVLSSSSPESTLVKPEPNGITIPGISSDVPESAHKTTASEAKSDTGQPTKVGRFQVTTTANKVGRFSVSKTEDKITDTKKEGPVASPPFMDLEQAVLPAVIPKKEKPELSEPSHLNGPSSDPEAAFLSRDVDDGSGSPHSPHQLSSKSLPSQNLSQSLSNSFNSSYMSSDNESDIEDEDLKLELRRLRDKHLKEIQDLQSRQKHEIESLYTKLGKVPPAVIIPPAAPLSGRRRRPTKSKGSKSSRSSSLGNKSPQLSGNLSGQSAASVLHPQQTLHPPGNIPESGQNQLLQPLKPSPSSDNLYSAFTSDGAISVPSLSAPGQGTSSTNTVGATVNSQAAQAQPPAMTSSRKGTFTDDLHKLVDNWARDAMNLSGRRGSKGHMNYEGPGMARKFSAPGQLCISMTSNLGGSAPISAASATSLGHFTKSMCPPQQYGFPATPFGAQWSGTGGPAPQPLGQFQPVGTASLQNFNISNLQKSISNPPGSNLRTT
T20 sequence (P04049 306-648 Y340D/Y341D limits assumed): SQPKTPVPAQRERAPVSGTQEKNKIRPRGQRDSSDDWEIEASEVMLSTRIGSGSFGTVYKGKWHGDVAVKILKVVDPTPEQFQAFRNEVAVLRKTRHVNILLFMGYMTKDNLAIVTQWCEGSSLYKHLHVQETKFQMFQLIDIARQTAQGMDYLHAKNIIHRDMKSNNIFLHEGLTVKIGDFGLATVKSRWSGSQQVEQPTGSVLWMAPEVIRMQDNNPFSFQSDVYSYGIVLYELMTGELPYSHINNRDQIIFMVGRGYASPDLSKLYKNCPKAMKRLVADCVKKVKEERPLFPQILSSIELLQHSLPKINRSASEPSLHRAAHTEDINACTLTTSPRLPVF

Row | Structure (SMILES) | residual kinase activity (ERK2; 0.3 µM) | residual kinase activity (CDC42BPA; 0.3 µM) | residual kinase activity (p38γ; 0.3 µM) | residual kinase activity (PRKX; 0.3 µM) | residual kinase activity (MEK1; 0.3 µM) | residual kinase activity (PKA; 0.3 µM) | residual kinase activity (CDK8/CycC; 0.3 µM) | residual kinase activity (RPS6KA3; 0.3 µM) | residual kinase activity (PASK; 0.3 µM) | residual kinase activity (BRK; 0.3 µM) | residual kinase activity (VEGFR3; 0.3 µM) | residual kinase activity (CDK1/CycB1; 0.3 µM) | residual kinase activity (CK2α1; 0.3 µM) | residual kinase activity (MARK3; 0.3 µM) | residual kinase activity (WNK1; 0.3 µM) | residual kinase activity (SRPK2; 0.3 µM) | residual kinase activity (GRK4; 0.3 µM) | residual kinase activity (ARK5; 0.3 µM) | residual kinase activity (PAK4; 0.3 µM) | residual kinase activity (RAF1 YDYD; 0.3 µM) | also measured
1 | COc1ccnc2[nH]cc(-c3cc(N)nc(N)c3)c12 [meriolin 16] | 87 % of control | 7 % of control | 8 % of control | 3 % of control | 102 % of control | 43 % of control | 4 % of control | 39 % of control | 39 % of control | 85 % of control | 77 % of control | 5 % of control | 104 % of control | 86 % of control | 100 % of control | 91 % of control | 90 % of control | 88 % of control | 74 % of control | 96 % of control | residual kinase activity (ERK2; 0.03 µM): 103 % of control; residual kinase activity (CDC42BPA; 0.03 µM): 53 % of control; residual kinase activity (p38γ; 0.03 µM): 56 % of control; residual kinase activity (PRKX; 0.03 µM): 54 % of control; residual kinase activity (MEK1; 0.03 µM): 108 % of control; residual kinase activity (PKA; 0.03 µM): 75 % of control; residual kinase activity (CDK8/CycC; 0.03 µM): 6 % of control; residual kinase activity (RPS6KA3; 0.03 µM): 85 % of control; residual kinase activity (PASK; 0.03 µM): 82 % of control; residual kinase activity (BRK; 0.03 µM): 91 % of control; residual kinase activity (VEGFR3; 0.03 µM): 90 % of control; residual kinase activity (CDK1/CycB1; 0.03 µM): 29 % of control; residual kinase activity (CK2α1; 0.03 µM): 106 % of control; residual kinase activity (MARK3; 0.03 µM): 99 % of control; residual kinase activity (WNK1; 0.03 µM): 101 % of control; residual kinase activity (SRPK2; 0.03 µM): 93 % of control; residual kinase activity (GRK4; 0.03 µM): 101 % of control; residual kinase activity (ARK5; 0.03 µM): 92 % of control; residual kinase activity (PAK4; 0.03 µM): 86 % of control; residual kinase activity (RAF1 YDYD; 0.03 µM): 77 % of control
2 | c1ccc(CNc2cc(-c3c[nH]c4ncccc34)ccn2)cc1 [meriolin 36] | 79 % of control | 1 % of control | 64 % of control | 15 % of control | 35 % of control | 12 % of control | 5 % of control | 7 % of control | 3 % of control | 66 % of control | 64 % of control | 4 % of control | 99 % of control | 89 % of control | 107 % of control | 87 % of control | 108 % of control | 90 % of control | 56 % of control | 67 % of control | residual kinase activity (ERK2; 3 µM): 30 % of control; residual kinase activity (CDC42BPA; 3 µM): 1 % of control; residual kinase activity (p38γ; 3 µM): 19 % of control; residual kinase activity (PRKX; 3 µM): -1 % of control; residual kinase activity (MEK1; 3 µM): 6 % of control; residual kinase activity (PKA; 3 µM): 2 % of control; residual kinase activity (CDK8/CycC; 3 µM): 2 % of control; residual kinase activity (RPS6KA3; 3 µM): 1 % of control; residual kinase activity (PASK; 3 µM): 0 % of control; residual kinase activity (BRK; 3 µM): 18 % of control; residual kinase activity (VEGFR3; 3 µM): 23 % of control; residual kinase activity (CDK1/CycB1; 3 µM): 1 % of control; residual kinase activity (CK2α1; 3 µM): 53 % of control; residual kinase activity (MARK3; 3 µM): 48 % of control; residual kinase activity (WNK1; 3 µM): 98 % of control; residual kinase activity (SRPK2; 3 µM): 55 % of control; residual kinase activity (GRK4; 3 µM): 95 % of control; residual kinase activity (ARK5; 3 µM): 40 % of control; residual kinase activity (PAK4; 3 µM): 16 % of control; residual kinase activity (RAF1 YDYD; 3 µM): 67 % of control
